# Laboratory results reported in ChEMBL document CHEMBL1201862, “PubChem BioAssay data set” (2004).
# Calls of active or inactive are those of the source.
# Key:
# [1] = biological target: DNA dC->dU-editing enzyme APOBEC-3A (Homo sapiens, UniProt P31941); test: A3A deaminase inhibition for selectivity – biochemical, dose response (AID 504722); assay type: functional
# [2] = biological target: T1, Carboxy-terminal domain RNA polymerase II polypeptide A small phosphatase 1 (Homo sapiens, UniProt Q9GZU7); test: CTDSP1 inhibitors, concentration-response, biochemical, absorbance readout, ultra-high-throughput screen actives (AID 540297); assay type: functional
# T1 sequence (Q9GZU7 whole entry): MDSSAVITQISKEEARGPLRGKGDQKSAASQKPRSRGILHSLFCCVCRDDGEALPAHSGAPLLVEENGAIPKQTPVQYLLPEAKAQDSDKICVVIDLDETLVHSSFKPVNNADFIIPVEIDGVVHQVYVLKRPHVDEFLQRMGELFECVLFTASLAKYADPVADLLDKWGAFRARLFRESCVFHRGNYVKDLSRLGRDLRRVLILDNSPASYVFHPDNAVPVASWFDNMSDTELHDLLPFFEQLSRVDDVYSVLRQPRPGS
# [3] = biological target: T2, Apoptotic protease-activating factor 1 (Homo sapiens, UniProt O14727); test: activation of Apaf-1 mediated apoptosis – fluorescent, uHTS hits, dose response (AID 588554); assay type: functional
# T2 sequence (O14727 whole entry): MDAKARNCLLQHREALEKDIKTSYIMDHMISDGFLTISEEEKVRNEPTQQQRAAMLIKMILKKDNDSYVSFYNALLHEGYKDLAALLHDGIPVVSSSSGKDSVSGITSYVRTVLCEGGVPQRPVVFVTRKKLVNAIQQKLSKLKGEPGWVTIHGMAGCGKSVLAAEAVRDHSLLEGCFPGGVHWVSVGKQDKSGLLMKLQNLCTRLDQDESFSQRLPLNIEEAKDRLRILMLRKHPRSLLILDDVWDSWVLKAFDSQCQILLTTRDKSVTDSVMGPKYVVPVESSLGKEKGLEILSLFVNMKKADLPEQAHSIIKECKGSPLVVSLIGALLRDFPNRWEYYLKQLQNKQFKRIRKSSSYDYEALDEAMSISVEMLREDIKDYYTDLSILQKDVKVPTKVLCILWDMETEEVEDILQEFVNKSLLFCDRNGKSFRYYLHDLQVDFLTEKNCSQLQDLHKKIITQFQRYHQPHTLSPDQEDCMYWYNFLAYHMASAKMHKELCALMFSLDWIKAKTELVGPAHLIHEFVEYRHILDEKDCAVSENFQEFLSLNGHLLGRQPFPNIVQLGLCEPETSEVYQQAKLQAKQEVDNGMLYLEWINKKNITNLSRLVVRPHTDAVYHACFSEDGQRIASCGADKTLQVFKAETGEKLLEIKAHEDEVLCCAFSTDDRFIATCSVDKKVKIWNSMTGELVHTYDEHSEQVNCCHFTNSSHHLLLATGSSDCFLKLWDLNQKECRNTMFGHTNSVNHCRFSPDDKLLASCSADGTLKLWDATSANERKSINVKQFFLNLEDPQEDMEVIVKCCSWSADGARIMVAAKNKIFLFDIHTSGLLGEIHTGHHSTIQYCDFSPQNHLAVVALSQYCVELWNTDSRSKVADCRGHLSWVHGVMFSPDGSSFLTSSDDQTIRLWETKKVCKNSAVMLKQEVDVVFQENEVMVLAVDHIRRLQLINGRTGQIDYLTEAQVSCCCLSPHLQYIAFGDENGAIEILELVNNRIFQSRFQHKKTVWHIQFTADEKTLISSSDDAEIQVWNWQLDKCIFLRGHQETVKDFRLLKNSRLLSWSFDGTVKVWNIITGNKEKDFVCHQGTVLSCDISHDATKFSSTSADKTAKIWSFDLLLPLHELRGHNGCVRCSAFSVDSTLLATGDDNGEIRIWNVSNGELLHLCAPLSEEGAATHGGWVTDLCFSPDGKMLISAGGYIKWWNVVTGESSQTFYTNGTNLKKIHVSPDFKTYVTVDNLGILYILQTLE
# [4] = biological target: Beta-adrenergic receptor kinase 1 (Homo sapiens, UniProt P25098); test: aptamer displacement from bead-bound GRK2 – biochemical, cherry pick 1, bead flow cytometry, dose response (AID 504500)
# Chain of Beta-adrenergic receptor kinase 1 (P25098 whole entry): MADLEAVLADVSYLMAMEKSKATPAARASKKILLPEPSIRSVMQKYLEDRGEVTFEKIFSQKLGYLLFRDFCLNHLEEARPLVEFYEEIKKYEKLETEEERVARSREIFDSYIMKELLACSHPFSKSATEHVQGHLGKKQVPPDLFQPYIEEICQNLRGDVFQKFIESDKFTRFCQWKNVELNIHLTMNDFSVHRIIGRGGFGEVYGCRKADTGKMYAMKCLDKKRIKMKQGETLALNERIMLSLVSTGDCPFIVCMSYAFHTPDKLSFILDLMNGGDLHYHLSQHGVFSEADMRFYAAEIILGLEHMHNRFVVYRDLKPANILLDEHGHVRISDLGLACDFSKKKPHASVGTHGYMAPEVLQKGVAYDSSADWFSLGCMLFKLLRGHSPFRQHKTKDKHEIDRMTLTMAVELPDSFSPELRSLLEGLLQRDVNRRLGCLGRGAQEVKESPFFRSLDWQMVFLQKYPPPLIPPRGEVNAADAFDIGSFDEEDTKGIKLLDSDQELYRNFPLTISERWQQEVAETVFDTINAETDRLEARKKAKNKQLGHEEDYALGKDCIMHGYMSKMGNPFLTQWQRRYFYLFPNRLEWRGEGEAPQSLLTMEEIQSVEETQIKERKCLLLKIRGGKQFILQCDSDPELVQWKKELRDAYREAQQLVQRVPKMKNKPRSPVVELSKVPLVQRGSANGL
# [5] = biological target: DNA dC->dU-editing enzyme APOBEC-3G (Homo sapiens, UniProt Q9HC16); test: Dose Response confirmation of small molecule APOBEC3G DNA Deaminase Inhibitors via a fluorescence-based single-stranded DNA deaminase assay. [Related pubchem assays (depositor defined):AID493012, AID493028]; assay type: functional
# Chain of DNA dC->dU-editing enzyme APOBEC-3G (Q9HC16 whole entry): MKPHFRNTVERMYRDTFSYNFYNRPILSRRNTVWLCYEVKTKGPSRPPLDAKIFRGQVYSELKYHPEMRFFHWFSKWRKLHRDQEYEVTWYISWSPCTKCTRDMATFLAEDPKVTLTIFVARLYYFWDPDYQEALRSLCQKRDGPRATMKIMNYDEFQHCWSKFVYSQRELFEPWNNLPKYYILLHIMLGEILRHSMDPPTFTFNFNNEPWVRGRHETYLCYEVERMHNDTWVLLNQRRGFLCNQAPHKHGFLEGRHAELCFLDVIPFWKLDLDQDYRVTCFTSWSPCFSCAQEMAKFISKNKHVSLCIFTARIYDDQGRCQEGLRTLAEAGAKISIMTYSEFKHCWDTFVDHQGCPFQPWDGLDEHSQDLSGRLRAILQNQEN
# HeLa = test: ATP-based viability loss in HeLa cells – cell-based, CellTiter-Glo luminescence, cherry-pick samples, cytotoxicity control for MITF activator project, dose response (AID 540259); assay type: functional; conditions: Homo sapiens
# [6] = biological target: Dual specificity protein kinase CLK1 (Homo sapiens, UniProt P49759); test: inhibition of human CLK1 activity – biochemical, cherry-picked samples, selectivity assay for Dyrk1A inhibitor project, dose response (AID 588811)
# [7] = biological target: Glycogen synthase kinase-3 alpha (Homo sapiens, UniProt P49840); test: Inhibition of Human GSK-3 alpha Activity Measured in Biochemical System Using Microfluidics - 2063-06_Inhibitor_Dose_DryPowder_Activity. [Related pubchem assays (depositor defined):AID2709]
# Chain of Glycogen synthase kinase-3 alpha (P49840 whole entry): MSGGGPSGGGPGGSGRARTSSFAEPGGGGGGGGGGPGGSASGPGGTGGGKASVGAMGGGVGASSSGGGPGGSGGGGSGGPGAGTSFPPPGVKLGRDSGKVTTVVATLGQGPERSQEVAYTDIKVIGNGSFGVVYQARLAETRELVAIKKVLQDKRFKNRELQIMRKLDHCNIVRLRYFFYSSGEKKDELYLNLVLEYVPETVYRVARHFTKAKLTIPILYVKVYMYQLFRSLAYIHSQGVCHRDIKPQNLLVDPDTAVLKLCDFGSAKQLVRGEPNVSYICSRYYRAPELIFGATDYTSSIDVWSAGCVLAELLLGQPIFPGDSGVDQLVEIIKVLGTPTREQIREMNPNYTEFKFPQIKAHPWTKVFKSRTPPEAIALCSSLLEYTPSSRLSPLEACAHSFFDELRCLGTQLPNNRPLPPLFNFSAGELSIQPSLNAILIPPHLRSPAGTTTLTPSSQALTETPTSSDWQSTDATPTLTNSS
# [8] = biological target: Glycogen synthase kinase-3 beta (Homo sapiens, UniProt P49841); test: Inhibition of Human GSK-3 beta Activity Measured in Biochemical System Using Microfluidics - 2063-05_Inhibitor_Dose_DryPowder_Activity. [Related pubchem assays (depositor defined):AID2709]
# Chain of Glycogen synthase kinase-3 beta (P49841 whole entry): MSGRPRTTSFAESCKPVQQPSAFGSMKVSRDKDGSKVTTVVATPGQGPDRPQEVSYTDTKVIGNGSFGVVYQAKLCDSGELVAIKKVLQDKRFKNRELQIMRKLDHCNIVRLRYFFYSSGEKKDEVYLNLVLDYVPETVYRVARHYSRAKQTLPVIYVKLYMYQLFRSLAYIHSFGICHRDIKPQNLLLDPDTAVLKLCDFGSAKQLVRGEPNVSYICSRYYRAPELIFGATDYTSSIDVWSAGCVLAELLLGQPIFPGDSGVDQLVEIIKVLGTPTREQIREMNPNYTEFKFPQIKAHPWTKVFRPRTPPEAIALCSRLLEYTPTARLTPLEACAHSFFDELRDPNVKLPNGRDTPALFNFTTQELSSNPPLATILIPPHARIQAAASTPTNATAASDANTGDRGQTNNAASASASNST
# CAAX prenyl protease 1 = CAAX prenyl protease 1 (Saccharomyces cerevisiae S288c, UniProt P47154); test: yeast CAAX protease Ste24 inhibition – biochemical, S. cerevisiae, plate reader, cherry-pick, dose response (AID 488815)
# Chain of CAAX prenyl protease 1 (P47154 whole entry): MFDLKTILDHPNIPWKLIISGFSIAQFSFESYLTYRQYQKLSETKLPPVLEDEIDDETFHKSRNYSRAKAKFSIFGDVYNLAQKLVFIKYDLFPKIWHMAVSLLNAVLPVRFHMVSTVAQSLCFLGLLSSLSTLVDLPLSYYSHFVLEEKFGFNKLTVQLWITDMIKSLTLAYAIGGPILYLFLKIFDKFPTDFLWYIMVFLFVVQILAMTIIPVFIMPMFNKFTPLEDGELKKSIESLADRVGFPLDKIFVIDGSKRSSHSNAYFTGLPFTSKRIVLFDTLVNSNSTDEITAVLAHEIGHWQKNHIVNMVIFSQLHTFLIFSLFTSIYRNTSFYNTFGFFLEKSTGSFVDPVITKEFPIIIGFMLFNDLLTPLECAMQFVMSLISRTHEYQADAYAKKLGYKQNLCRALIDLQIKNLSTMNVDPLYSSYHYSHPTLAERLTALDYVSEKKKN
# CAAX prenyl protease 2 = CAAX prenyl protease 2 (Homo sapiens, UniProt Q9Y256); test: inhibition of Ras-converting CAAX protease Rce1 – biochemical, yeast membranes, quenched-peptide fluorescence, cherry-pick, dose response (AID 588849)
# Chain of CAAX prenyl protease 2 (Q9Y256 whole entry): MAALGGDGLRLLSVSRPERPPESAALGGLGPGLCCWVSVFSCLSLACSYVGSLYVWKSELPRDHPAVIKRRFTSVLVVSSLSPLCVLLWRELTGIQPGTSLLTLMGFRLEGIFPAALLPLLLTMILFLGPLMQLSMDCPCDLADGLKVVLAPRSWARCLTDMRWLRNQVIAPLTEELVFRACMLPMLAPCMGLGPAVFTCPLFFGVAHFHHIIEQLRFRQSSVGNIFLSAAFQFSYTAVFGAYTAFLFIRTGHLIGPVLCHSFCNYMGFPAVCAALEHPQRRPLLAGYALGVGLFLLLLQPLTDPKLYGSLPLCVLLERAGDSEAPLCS
# Trypsin = Trypsin (Sus scrofa, UniProt P00761); test: trypsin protease activity blockade – biochemical, quenched peptide fluorescence, cherry-pick, selectivity assay for Rce1 protease inhibitor project, dose response (AID 488789)
# Chain of Trypsin (P00761 whole entry): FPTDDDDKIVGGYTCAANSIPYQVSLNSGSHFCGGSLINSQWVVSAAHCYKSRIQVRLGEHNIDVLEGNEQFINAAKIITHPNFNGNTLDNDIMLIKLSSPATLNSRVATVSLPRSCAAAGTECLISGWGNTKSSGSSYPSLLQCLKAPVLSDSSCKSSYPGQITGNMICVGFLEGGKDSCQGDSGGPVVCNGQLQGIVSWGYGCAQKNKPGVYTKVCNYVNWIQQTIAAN
# Phospholipase D2 = Phospholipase D2 (Homo sapiens, UniProt O14939); test: cellular phospholipase D2 inhibition IC50 – cell-based, dose response (AID 602147); assay type: functional;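 also: cellular assay in HEK293 cells overexpressing GFP-tagged PLD2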
# Chain of Phospholipase D2 (O14939 whole entry): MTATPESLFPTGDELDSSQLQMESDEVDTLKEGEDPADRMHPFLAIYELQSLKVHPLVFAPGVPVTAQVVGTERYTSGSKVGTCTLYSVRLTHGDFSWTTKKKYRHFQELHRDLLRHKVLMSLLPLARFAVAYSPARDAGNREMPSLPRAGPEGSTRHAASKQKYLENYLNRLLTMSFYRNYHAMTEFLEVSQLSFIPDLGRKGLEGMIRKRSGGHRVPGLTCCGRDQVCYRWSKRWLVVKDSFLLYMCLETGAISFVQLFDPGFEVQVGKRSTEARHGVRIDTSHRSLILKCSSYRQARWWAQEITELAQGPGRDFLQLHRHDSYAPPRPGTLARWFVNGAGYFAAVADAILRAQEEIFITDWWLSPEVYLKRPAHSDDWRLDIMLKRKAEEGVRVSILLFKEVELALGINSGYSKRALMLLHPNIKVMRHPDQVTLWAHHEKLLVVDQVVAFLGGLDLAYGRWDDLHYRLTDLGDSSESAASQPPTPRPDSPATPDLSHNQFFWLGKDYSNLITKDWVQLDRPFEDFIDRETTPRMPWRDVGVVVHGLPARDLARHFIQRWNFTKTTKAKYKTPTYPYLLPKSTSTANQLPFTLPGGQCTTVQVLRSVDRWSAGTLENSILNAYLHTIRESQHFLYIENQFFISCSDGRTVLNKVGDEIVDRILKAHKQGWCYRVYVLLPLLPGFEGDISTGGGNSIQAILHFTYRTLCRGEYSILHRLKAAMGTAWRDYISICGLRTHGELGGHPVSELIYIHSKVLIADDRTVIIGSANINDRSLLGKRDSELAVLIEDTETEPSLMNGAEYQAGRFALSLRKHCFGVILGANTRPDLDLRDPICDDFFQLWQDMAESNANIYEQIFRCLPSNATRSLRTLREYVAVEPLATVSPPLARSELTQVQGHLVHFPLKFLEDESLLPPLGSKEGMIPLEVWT
# Phospholipase D1 = Phospholipase D1 (Homo sapiens, UniProt Q13393); test: cellular phospholipase D1 inhibition IC50 – cell-based, dose response (AID 602151); assay type: functional;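 also: cellular PLD1 assay in Calu-1 cells stimulated with PMA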
# Chain of Phospholipase D1 (Q13393 whole entry): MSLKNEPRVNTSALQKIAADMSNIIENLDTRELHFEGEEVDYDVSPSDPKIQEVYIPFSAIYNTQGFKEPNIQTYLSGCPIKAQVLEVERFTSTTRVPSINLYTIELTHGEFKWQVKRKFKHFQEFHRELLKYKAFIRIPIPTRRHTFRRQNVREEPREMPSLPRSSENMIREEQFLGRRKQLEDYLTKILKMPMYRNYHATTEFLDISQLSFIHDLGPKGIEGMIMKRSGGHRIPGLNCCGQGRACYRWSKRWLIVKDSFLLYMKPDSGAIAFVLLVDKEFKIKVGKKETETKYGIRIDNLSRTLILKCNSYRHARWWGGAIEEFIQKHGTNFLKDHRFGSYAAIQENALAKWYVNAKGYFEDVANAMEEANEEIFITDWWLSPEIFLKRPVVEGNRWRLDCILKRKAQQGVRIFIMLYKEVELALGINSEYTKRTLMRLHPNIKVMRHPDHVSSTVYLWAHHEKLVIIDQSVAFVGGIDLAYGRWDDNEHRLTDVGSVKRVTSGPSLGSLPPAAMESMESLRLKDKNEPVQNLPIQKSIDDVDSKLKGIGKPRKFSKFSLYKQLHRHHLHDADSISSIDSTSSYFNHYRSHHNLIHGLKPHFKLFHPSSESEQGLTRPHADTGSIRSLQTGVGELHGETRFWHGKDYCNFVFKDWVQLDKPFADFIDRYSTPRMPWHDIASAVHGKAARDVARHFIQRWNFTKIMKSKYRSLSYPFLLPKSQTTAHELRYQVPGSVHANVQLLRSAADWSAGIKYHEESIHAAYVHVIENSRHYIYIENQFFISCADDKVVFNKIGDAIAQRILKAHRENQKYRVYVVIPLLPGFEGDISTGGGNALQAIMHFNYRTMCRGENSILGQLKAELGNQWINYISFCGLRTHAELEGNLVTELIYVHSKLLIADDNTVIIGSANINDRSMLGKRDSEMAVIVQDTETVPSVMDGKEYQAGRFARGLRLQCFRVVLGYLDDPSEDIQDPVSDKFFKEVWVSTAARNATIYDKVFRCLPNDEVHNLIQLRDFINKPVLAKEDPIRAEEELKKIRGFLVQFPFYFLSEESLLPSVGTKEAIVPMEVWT
# Caspase-3 = biological target: T3, Caspase-3 (Homo sapiens, UniProt P42574); test: inhibition of recombinant caspase-3 activity – biochemical, luminescence, set 2, selectivity assay for SENP protease inhibitor project, SAR follow-up (AID 588599); assay type: functional
# T3 sequence (P42574 whole entry): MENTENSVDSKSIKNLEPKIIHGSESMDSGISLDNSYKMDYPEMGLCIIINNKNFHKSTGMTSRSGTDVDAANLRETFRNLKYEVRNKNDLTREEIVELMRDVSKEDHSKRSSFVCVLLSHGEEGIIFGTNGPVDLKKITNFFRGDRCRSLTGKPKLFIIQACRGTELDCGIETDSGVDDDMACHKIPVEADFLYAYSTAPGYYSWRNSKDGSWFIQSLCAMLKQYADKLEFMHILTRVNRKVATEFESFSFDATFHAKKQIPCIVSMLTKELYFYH
# [9] = biological target: T4, Sentrin-specific protease 8 (Homo sapiens, UniProt Q96LD8); test: inhibition of sentrin protease 8 – biochemical, luminescence, set 2, SAR follow-up (AID 588601); assay type: functional
# T4 sequence (Q96LD8 whole entry): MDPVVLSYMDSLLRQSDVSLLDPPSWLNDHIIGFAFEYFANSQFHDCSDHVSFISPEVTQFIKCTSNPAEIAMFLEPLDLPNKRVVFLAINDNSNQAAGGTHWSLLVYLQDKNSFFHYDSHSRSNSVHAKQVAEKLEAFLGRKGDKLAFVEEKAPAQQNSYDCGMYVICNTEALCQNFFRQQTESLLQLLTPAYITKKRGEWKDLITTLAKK
# [10] = biological target: T5, Sentrin-specific protease 6 (Homo sapiens, UniProt Q9GZR1); test: inhibition of human SENP6 catalytic domain – biochemical, luminescence, set 2, SAR follow-up (AID 588598); assay type: functional
# T5 sequence (Q9GZR1 whole entry): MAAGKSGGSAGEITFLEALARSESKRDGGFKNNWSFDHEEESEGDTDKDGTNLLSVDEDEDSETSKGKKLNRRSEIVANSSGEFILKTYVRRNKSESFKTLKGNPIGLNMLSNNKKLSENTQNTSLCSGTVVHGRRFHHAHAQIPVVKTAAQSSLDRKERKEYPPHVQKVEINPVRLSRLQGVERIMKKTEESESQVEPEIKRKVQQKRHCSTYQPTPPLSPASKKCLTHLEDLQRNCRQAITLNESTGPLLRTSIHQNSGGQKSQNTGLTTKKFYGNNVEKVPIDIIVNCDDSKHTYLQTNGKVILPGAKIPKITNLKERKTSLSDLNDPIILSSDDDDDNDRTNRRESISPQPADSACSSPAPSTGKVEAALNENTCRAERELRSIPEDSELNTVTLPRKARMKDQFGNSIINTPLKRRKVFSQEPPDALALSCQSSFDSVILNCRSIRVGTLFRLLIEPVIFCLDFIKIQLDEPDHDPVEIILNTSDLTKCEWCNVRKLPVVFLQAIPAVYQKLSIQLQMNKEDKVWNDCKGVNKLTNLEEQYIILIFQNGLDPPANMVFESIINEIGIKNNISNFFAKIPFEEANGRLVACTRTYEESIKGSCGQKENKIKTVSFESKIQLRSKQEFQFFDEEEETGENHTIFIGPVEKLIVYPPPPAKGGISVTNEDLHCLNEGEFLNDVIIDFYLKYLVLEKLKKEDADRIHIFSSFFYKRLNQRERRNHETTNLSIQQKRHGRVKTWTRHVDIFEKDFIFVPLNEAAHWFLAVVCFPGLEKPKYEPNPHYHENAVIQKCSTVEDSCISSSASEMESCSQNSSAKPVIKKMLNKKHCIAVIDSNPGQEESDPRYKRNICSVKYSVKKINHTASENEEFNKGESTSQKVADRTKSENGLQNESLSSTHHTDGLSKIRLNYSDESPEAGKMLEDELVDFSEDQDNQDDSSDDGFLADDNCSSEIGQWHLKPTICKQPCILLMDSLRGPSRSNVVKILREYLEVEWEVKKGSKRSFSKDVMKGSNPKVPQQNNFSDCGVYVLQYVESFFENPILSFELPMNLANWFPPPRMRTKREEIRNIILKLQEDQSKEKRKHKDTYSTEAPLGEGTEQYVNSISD
# [11] = biological target: T6, Sentrin-specific protease 7 (Homo sapiens, UniProt Q9BQF6); test: inhibition of human SENP7 cleavage activity – biochemical, luminescence, set 2, SAR follow-up (AID 588600); assay type: functional
# T6 sequence (Q9BQF6 whole entry): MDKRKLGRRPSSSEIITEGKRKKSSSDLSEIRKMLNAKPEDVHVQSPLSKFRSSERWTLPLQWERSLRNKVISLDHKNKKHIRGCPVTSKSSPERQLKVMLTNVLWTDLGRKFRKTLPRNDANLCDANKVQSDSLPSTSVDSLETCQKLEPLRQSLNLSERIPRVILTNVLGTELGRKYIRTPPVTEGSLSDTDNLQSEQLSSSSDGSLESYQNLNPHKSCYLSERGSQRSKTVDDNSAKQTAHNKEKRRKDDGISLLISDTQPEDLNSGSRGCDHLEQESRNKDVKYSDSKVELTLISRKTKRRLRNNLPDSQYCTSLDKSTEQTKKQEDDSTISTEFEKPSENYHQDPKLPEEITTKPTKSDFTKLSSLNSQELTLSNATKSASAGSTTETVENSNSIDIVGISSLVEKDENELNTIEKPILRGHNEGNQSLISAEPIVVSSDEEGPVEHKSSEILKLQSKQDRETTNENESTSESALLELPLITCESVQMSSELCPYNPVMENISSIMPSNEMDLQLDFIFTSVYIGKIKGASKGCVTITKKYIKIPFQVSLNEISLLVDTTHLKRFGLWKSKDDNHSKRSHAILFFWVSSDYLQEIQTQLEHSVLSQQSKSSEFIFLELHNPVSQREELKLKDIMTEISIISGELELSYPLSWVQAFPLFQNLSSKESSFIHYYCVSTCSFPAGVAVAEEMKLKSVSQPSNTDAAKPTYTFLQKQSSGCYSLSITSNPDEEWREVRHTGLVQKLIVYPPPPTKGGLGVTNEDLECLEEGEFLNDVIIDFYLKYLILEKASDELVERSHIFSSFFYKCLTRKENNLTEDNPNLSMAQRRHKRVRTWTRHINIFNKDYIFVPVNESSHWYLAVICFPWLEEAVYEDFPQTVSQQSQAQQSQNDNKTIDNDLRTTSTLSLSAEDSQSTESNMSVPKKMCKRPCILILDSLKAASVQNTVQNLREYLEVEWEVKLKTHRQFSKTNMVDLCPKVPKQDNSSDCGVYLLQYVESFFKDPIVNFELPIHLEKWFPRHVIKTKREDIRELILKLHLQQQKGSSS
compound,measurement,setting,value
C=C(C)C(=O)Nc1cccc(C2=NOC3(C2)C[C@H](C(N)=O)N(C(=O)c2ccccc2)C3)c1 (stereo partly drawn),IC50,[1],> 100 µM (inactive)
same,IC50,[2],3.85 µM (active)
same,EC50,[3],17.1 µM (active)
same,EC50,[4],12.5 µM (inactive)
same,IC50,[5],14.3 µM (active)
CC1CCN(c2oc(-c3ccccc3Cl)nc2C#N)CC1,AC50,HeLa,73 µM (active)
Fc1c(-c2ccc3ncnc(NCc4cccs4)c3c2)ccc2c1OCO2,AC50,[6],0.057 µM (active)
CCOC(=O)c1nnn(-c2nonc2N)c1CSc1ccc(C)cc1,AC50,[7],8.32 µM (active)
same,AC50,[8],1.19 µM (active)
CC(Oc1ccc2c3c(c(=O)oc2c1)CCCC3)C(=O)NC1CC(C)(C)NC(C)(C)C1 (stereo not drawn),AC50,CAAX prenyl protease 1,2.88 µM (active)
same,AC50,CAAX prenyl protease 2,16.2 µM (active)
same,AC50,Trypsin,9.81 µM (active)
C[C@H](CN1CCC2(CC1)C(=O)NCN2c1ccccc1)NC(=O)c1ccc(F)cc1,IC50,Phospholipase D2,0.2 µM (active)
same,IC50,Phospholipase D1,0.413 µM (active)
O=C(N/N=C/c1c[nH]c2ccccc12)c1[nH]c2ccc(Cl)cc2c1-c1ccccc1,IC50,Caspase-3,> 99 µM (inactive)
same,IC50,[9],> 99 µM (inactive)
same,IC50,[10],> 99 µM (inactive)
same,IC50,[11],> 99 µM (inactive)
